The record followed here is the CATMoS acute toxicity set (Mansouri et al. 2021).

SMILES strings stand for the structures. Several values for one entry are separate records, joined by “and”; a condition that tells them apart may be missing. Identical values can stand only once.

A short description of this data set: rat acute oral toxicity. Conditions: in vivo.
Regarding `ClSC(Cl)(Cl)Cl`, the LD50 (in general, the dose at which mortality reaches 50%) was 82.6 mg/kg.
For `CC(C)c1cccc(C(C)C)c1N=C=Nc1c(C(C)C)cccc1C(C)C` the value was 200 mg/kg.
With `CC(C)(C)NCCOCCO`, the LD50 is 1400 mg/kg.
Compound `CC(=O)OCCOC(C)=O` yielded an LD50 of 6850 mg/kg.
`CCCC(C)c1cccc(OC(=O)NC)c1` (stereo not given) came in with an LD50 of 50 mg/kg.
Take `COc1ccc2c(c1)c(CC(=O)O)c(C)n2C(=O)c1ccc(Cl)cc1`: the LD50 stood at 2.42 mg/kg.
The same measure for `CCO[Si](CCCN)(OCC)OCC`: 1570 mg/kg.
Take `CC(=O)OC(C)C`: the LD50 was 3000 mg/kg.
The same measure for `c1ccc(CNc2[nH]cnc3ncnc2-3)cc1`: 1300 mg/kg.
In the case of `C=CC(=O)OCCOC`, the LD50 came out at 404 mg/kg. Compared with the last compound, the LD50 is about 3.2-fold lower.
Take `O=C(O)COc1ccc(Cl)cc1Cl`: the LD50 was 625 mg/kg and 552 mg/kg and 370 mg/kg.
The same measure for `O=C1OC(O)C(C(Cl)Cl)=C1Cl` (stereo not given): 128 mg/kg; for `COc1cc(CNC(=O)CCCC/C=C/C(C)C)ccc1O`: 148 mg/kg; for `O=C1c2ccccc2C(=O)C1C(=O)C(c1ccccc1)c1ccc(Cl)cc1` (stereo not given): 2.1 mg/kg.
For `O=C(CS)OC(CO)CO` the value was 172 mg/kg.
For `CC=C1CC2CC1C1C3C=CC(C3)C21` (stereo not given) the value was 666 mg/kg; for `O=P1(N(CCCl)CCCl)NCCCO1` (stereo not given), 100 mg/kg.
`CCC[N+](C)(C)CC[N+](C)(C)CCO` yielded an LD50 of 1850 mg/kg.
Take `CCC(C)(C)OC`: the 50% lethal dose (LD50) was 1600 mg/kg.
For `CC(O)CO` (stereo not given) the value was 20000 mg/kg; for `CCO`, 7230 mg/kg.
The same measure for `O=C(NC(=O)c1c(F)cccc1F)Nc1ccc(Cl)cc1`: 790 mg/kg.
Compound `Clc1cccc(Cl)c1C(Cl)Cl` had an LD50 of 1300 mg/kg.
The same measure for `CON(C)C(=O)Nc1ccc(Cl)c(Cl)c1`: 1150 mg/kg.
In turn, `Nc1ccccc1N` had an LD50 of 510 mg/kg.
For `CC(C)(C)N` the value was 44 mg/kg; for `CC(=O)CC(c1ccccc1)c1c(O)c2ccccc2oc1=O` (stereo not given), 1.6 mg/kg; for `N=C(NCCCCCCNC(=N)NC(=N)Nc1ccc(Cl)cc1)NC(=N)Nc1ccc(Cl)cc1`, 1180 mg/kg.
The same measure for `O=C1C[C@@H]2OCC=C3CN4CC[C@]56c7ccccc7N1[C@H]5[C@H]2[C@H]3C[C@H]46`: 3.58 mg/kg; for `CCOP(=S)(OCC)SCCSCC`: 1.9 mg/kg.
The same measure for `CCn1cc(C(=O)O)c(=O)c2ccc(C)nc21`: 1160 mg/kg.
As to `COc1ccccc1O`, the LD50 was determined as 520 mg/kg.
The same measure for `COc1ccc2c3c1O[C@H]1[C@@H](O)C=C[C@H]4[C@@H](C2)N(C)CC[C@@]341`: 427 mg/kg; for `O=C(Cl)CCCCl`: 1350 mg/kg.
As for `CCOP(=S)(OCC)SCSC(C)(C)C`, the LD50 was 1.6 mg/kg.
For `CO[Si](C)(OC)C1CCCCC1` the value was 2760 mg/kg.
The same measure for `O=c1[nH]c(=O)n(Cl)c(=O)n1Cl`: 1170 mg/kg and 1420 mg/kg; for `NCCNCCN`: 1080 mg/kg.
For `O=C1OC(=O)c2ccccc21` the value was 1530 mg/kg; for `CCCCCCCCOC(=O)c1ccccc1C(=O)OCCCCCCCC`, 47000 mg/kg.
The compound `ClCCCBr` displayed an LD50 of 930 mg/kg.
For `CNC(=O)ON=C(C)SC` the value was 14.7 mg/kg; for `CC(C)(C#N)C(C)(C)C#N`, 27 mg/kg.
Turning to `O=[N+]([O-])OCC(CO[N+](=O)[O-])O[N+](=O)[O-]`, the LD50 turned out to be 105 mg/kg.
For `CN=C=S` the value was 55 mg/kg.
As for `CC1(C)COCN1`, the median lethal dose (LD50) stood at 950 mg/kg. This LD50 lies about 17-fold higher than the previous one.
The same measure for `CC(=O)C(C)=O`: 1580 mg/kg; for `CCCCC(=O)O`: 1060 mg/kg; for `CCCC(C)(COC(N)=O)COC(N)=O`: 794 mg/kg.
For `CCS(=O)CCSP(=O)(OC)OC` (stereo not given) the value was 48 mg/kg; for `O=S(=O)(O)CCCS`, 3720 mg/kg; for `COCCOCCO`, 5500 mg/kg.
The same measure for `Cc1ccc(Nc2ccc(Nc3ccc(C)cc3)c3c2C(=O)c2ccccc2C3=O)cc1`: 3000 mg/kg; for `N#CC(Br)(Br)C(N)=O`: 178 mg/kg.
The compound `O=[N+]([O-])/N=C1\NCCN1Cc1ccc(Cl)nc1` gave an LD50 of 410 mg/kg. This LD50 lies about 2.3-fold higher than the previous one.
As for `C=C(Cl)Cl`, the LD50 stood at 80 mg/kg. Against the preceding compound, the LD50 is about 5.1-fold lower.
For `CCCCCc1cc(O)c2c(c1)OC(C)(C)[C@@H]1CCC(C)=C[C@@H]21` the value was 666 mg/kg; for `CN(C)CCN(C)C`, 268 mg/kg; for `CC(C)CC=O`, 5600 mg/kg.
For `O=C=Nc1cccc(C(F)(F)F)c1` the value was 975 mg/kg.
On to `CC(C)C#N`, for which the LD50 is 50 mg/kg.
Compound `COCCOC(C)=O` gave a 50% lethal dose (LD50) of 1250 mg/kg.
The same measure for `CCCCOC(=O)c1ccccc1`: 735 mg/kg; for `CO[C@H]1/C=C/O[C@@]2(C)Oc3c(C)c(O)c4c(O)c(c(/C=N/N5CCN(C)CC5)c(O)c4c3C2=O)NC(=O)/C(C)=C\C=C\[C@H](C)[C@H](O)[C@@H](C)[C@@H](O)[C@@H](C)[C@H](OC(C)=O)[C@@H]1C`: 900 mg/kg; for `C/C=C\CC1=C(C)[C@@H](OC(=O)[C@@H]2[C@@H](/C=C(\C)C(=O)OC)C2(C)C)CC1=O`: 1030 mg/kg.
For `CC(=O)C1C(=O)C=C(C)OC1=O` (stereo not given) the value was 500 mg/kg; for `CC(=O)C(Cl)C(=O)N(C)C` (stereo not given), 275 mg/kg; for `CCCCCCCCCCCCCCCCCCN(C)C`, 2120 mg/kg.
The same measure for `OCCCl`: 58 mg/kg.
The compound `CCCCOC(=O)c1ccccc1C(=O)OCCCC` had an LD50 of 6300 mg/kg. This LD50 lies about 110-fold higher than the previous one.
The same measure for `N#CCC#N`: 14 mg/kg; for `CCCCCCCCCCCCCCCCCC[N+](C)(C)CCCCCCCCCCCCCCCCCC`: 11300 mg/kg.
The same measure for `Nc1cccc([N+](=O)[O-])c1`: 535 mg/kg.
The same measure for `C[C@@H]1Cc2c(Cl)cc(C(=O)N[C@@H](Cc3ccccc3)C(=O)O)c(O)c2C(=O)O1`: 20 mg/kg; for `CC(O)CCO` (stereo not given): 18600 mg/kg; for `CCCCCCCCCCCCN(CCCN)CCCN`: 252 mg/kg.
As for `O=C(O)c1ccc(C(=O)O)cc1`, the LD50 came out at 1960 mg/kg.
For `CCCCC(CC)COP(Oc1ccccc1)Oc1ccccc1` (stereo not given) the value was 3840 mg/kg.
For `CCSC(=O)N(CC(C)C)CC(C)C` the value was 4000 mg/kg; for `CN(C)C`, 460 mg/kg.
For `NC(=O)NCc1ccccc1` the value was 2700 mg/kg; for `CC(Cl)(Cl)C(=O)O`, 6940 mg/kg.
In turn, `CCCCC(CC)CO` (stereo not given) gave an LD50 of 2050 mg/kg.
With `CCC1CO1` (stereo not given), the LD50 was determined as 500 mg/kg.
For `CC(=O)CC(C)(C)O` the value was 2520 mg/kg; for `OC(c1ccc(Cl)cc1)(c1ccc(Cl)cc1)C(Cl)(Cl)Cl`, 575 mg/kg; for `CC(O)C(=O)O` (stereo not given), 3540 mg/kg.
`CNC1=Nc2ccc(Cl)cc2C(c2ccccc2)=[N+]([O-])C1`: the LD50 worked out at 392 mg/kg.
The same measure for `O=c1n(Cl)c(=O)n(Cl)c(=O)n1Cl`: 406 mg/kg; for `CCCCCCCCCCC(N)CO` (stereo not given): 300 mg/kg.
The same measure for `CCC(C)c1cc([N+](=O)[O-])cc([N+](=O)[O-])c1OC(=O)C=C(C)C` (stereo not given): 58 mg/kg; for `Clc1cc(-c2cc(Cl)c(Cl)c(Cl)c2)cc(Cl)c1Cl`: 4250 mg/kg; for `COC(=O)/C=C\C(=O)OC`: 1410 mg/kg.
`CCOP(=S)(OCC)Oc1nc(Cl)c(Cl)cc1Cl` yielded a median lethal dose (LD50) of 108 mg/kg.
The same measure for `CCOP(=S)(OCC)Oc1ccc([N+](=O)[O-])cc1`: 2.1 mg/kg; for `CCCCOCCOCCOC(C)=O`: 6500 mg/kg; for `OCCCCO`: 1350 mg/kg.
For `CC(C)c1cccc(C(C)C)c1N` the value was 3200 mg/kg; for `CC(=O)OO`, 39.9 mg/kg.
For `Cc1c(Cl)cccc1[N+](=O)[O-]` the value was 2320 mg/kg; for `Cc1ccccc1S(N)(=O)=O`, 2400 mg/kg; for `Cc1ccncc1`, 440 mg/kg.
For `CCCCN(CCCC)C(=O)N(CCCC)CCCC`, the 50% lethal dose (LD50) was found to be 16700 mg/kg. This LD50 lies about 38-fold higher than the previous one.
The same measure for `CC1=CC(=O)NS(=O)(=O)O1`: 5440 mg/kg; for `CN(C)S(=O)(=O)Cl`: 1220 mg/kg; for `O=C(Nc1ccccc1)Nc1ccnc(Cl)c1`: 4900 mg/kg.
For `CC(COCC(C)OC(=O)c1ccccc1)OC(=O)c1ccccc1` (stereo not given) the value was 3300 mg/kg.
The compound `CC1OC(C)OC(C)OC(C)O1` (stereo not given) had an LD50 of 227 mg/kg.
The same measure for `ClCC(Cl)CCl`: 136 mg/kg.
For `COC(=O)CCS` the value was 182 mg/kg; for `Cc1ccc(C)cc1`, 3520 mg/kg; for `CNC(=O)ON=CC(C)(C)SC`, 0.5 mg/kg.
The same measure for `CCCCSP(=O)(SCCCC)SCCCC`: 150 mg/kg; for `COP(=O)(OC)C(O)C(Cl)(Cl)Cl` (stereo not given): 154 mg/kg.
Compound `CCCN(CC1CC1)c1c([N+](=O)[O-])cc(C(F)(F)F)cc1[N+](=O)[O-]` yielded an LD50 of 1810 mg/kg.
The same measure for `Cc1ccccc1NC(=N)NC(=N)N`: 800 mg/kg.
The same measure for `O=C1C(Cl)=C(Cl)C(=O)C(Cl)=C1Cl`: 4000 mg/kg; for `O=[N+]([O-])c1ccc(Cl)cc1`: 460 mg/kg; for `Cc1ccc2nc(-c3ccc(N)cc3)sc2c1`: 5650 mg/kg.
The same measure for `CCN(C)C`: 594 mg/kg; for `Cl/C=C\CCl`: 81.5 mg/kg.
The compound `ClC(Br)Br` yielded an LD50 of 370 mg/kg.
For `O=C1OC(=O)c2cccc3cccc1c23` the value was 9600 mg/kg; for `O=C(O)CF`, 0.1 mg/kg.
For `C=CC(=O)Nc1ccccc1` the value was 300 mg/kg; for `CN1CCCC1=O`, 3910 mg/kg.
The same measure for `CC(C)O`: 4710 mg/kg.
Regarding `COC(=O)c1ccccc1C(=O)OC`, the LD50 stood at 2860 mg/kg.
The same measure for `COc1nc(NC(C)C)nc(NC(C)C)n1`: 503 mg/kg; for `CCCSC(=O)N(CCC)CCC`: 1200 mg/kg; for `CCCCC#N`: 332 mg/kg.
The same measure for `ClC(Cl)(Cl)C(Cl)(Cl)Cl`: 4460 mg/kg; for `CCOP(=S)(Oc1ccc([N+](=O)[O-])cc1)c1ccccc1` (stereo not given): 7 mg/kg; for `Cc1c(N)cccc1N`: 1000 mg/kg.
For `Clc1nc(Cl)nc(Cl)n1` the value was 315 mg/kg; for `CN(Cc1cnc2nc(N)nc(N)c2n1)c1ccc(C(=O)N[C@@H](CCC(=O)O)C(=O)O)cc1`, 135 mg/kg; for `CCCCCOC(C)=O`, 6500 mg/kg.
`CC(C)(C)C(O)C(Oc1ccc(Cl)cc1)n1cncn1` (stereo not given) had an LD50 of 689 mg/kg.
For `Cc1ncc2n1-c1ccc(Cl)cc1C(c1ccccc1F)=NC2` the value was 215 mg/kg; for `CC(O)CN(CCCN(C)C)CCCN(C)C` (stereo not given), 1330 mg/kg.
